US10428083B2, “Heterocyclylmethyl-thienouracile as antagonists of the adenosine-A2B-receptor” (BAYER PHARMA AKTIENGESELLSCHAFT, priority 2015, dated 2019)

Biological target: human adenosine A2b receptor (Homo sapiens (Human), UniProt P29275)
Assay: Cellular in vitro reporter gene test for A2b receptor activity (CHO-K1, CRE-luciferase, NECA stimulation)
Type: cell-based
Conditions: recombinant CHO-K1 cell line, CRE-luciferase reporter, antagonism of EC50 concentration of NECA; in some cases means of several determinations, rounded to two significant figures; read-out: A2b receptor IC50
Method in brief: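 CHO-K1 cells with CRE-driven luciferase; antagonists co-incubated with NECA at its EC50, determined in a pre-experiment on each test day. Luciferase read by luminescence 3 h after NECA addition.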

human adenosine A2b receptor, sequence (P29275 whole entry): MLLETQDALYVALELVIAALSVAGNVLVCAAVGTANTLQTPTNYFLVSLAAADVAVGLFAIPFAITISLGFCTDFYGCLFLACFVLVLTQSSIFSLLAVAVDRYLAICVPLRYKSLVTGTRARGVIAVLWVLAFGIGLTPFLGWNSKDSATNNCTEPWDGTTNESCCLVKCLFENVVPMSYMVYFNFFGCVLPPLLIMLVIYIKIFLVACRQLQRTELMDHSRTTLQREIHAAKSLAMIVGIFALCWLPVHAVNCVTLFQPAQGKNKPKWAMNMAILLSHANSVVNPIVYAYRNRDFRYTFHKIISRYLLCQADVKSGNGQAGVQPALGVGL

SMILES | IC50 [nM]
COCCn1c(=O)n(CC(F)(F)F)c(=O)c2c(C)c(Cn3[nH]ccc3=O)sc21 [Example 283, 1-(2-Methoxyethyl)-5-methyl-6-[(5-oxo-2,5-dihydro-1H-pyrazol-1-yl)methyl]-3-(2,2,2-trifluoroethyl)thieno[2,3-d]pyrimidine-2,4(1H,3H)-dione] | 79
[2H]C([2H])(c1sc2c(c1C)c(=O)n([C@H](C)C(F)(F)F)c(=O)n2CCOC)N1CCNC1=O [Example 501, 1-(2-Methoxyethyl)-5-methyl-6-[(2-oxoimidazolidin-1-yl)(dideutero)methyl]-3-[(2R)-1,1,1-trifluoropropan-2-yl]thieno[2,3-d]pyrimidine-2,4(1H,3H)-dione] | 43
Cc1c(CN2CCN(C(C)C)C2=S)sc2c1c(=O)n(CC(F)(F)F)c(=O)n2C [Example 305, 6-[(3-Isopropyl-2-thioxoimidazolidin-1-yl)methyl]-1,5-dimethyl-3-(2,2,2-trifluoroethyl)thieno[2,3-d]pyrimidine-2,4(1H,3H)-dione] | 140
CCn1c(=O)c2c(C)c(CN3CCNC3=S)sc2n(CCCCF)c1=O [Example 30, 3-Ethyl-1-(4-fluorobutyl)-5-methyl-6-[(2-thioxoimidazolidin-1-yl)methyl]thieno[2,3-d]pyrimidine-2,4(1H,3H)-dione] | 5
COC(=O)N=C1NCCN1Cc1sc2c(c1C)c(=O)n(CC(F)(F)F)c(=O)n2CC1CCO1 (single isomer, unassigned) [Example 466, Methyl [1-{[5-methyl-1-(oxetan-2-ylmethyl)-2,4-dioxo-3-(2,2,2-trifluoroethyl)-1,2,3,4-tetrahydrothieno[2,3-d]pyrimidin-6-yl]methyl}imidazolidin-2-ylidene]carbamate] | 6.6
CCn1c(=O)c2c(C)c(CN3CCNC3=NC#N)sc2n(CC2CCCO2)c1=O (single isomer, unassigned) [Example 260, [1-{[3-Ethyl-5-methyl-2,4-dioxo-1-(tetrahydrofuran-2-ylmethyl)-1,2,3,4-tetrahydrothieno[2,3-d]pyrimidin-6-yl]methyl}imidazolidin-2-ylidene]cyanamide] | 2.2
CCn1c(=O)c2c(C)c(CN3CC(C)NC3=S)sc2n(CCOC)c1=O (racemic) [Example 303, 3-Ethyl-1-(2-methoxyethyl)-5-methyl-6-[(4-methyl-2-thioxoimidazolidin-1-yl)methyl]thieno[2,3-d]pyrimidine-2,4(1H,3H)-dione] | 46
COCCn1c(=O)c2c(C)c(CN3CCNC3=O)sc2n(CC2CCCO2)c1=O (racemic) [Example 233, 3-(2-Methoxyethyl)-5-methyl-6-[(2-oxoimidazolidin-1-yl)methyl]-1-(tetrahydrofuran-2-ylmethyl)thieno[2,3-d]pyrimidine-2,4(1H,3H)-dione] | 23
Cc1c(CN2CCNC(=O)C2=O)sc2c1c(=O)n(CC(C)(C)C)c(=O)n2CCCF [Example 273, 3-(2,2-Dimethylpropyl)-6-[(2,3-dioxopiperazin-1-yl)methyl]-1-(3-fluoropropyl)-5-methylthieno[2,3-d]pyrimidine-2,4(1H,3H)-dione] | 19
CCOCCn1c(=O)c2c(C)c(CN3CCNC3=O)sc2n(CCOC)c1=O [Example 327, 3-(2-Ethoxyethyl)-1-(2-methoxyethyl)-5-methyl-6-[(2-oxoimidazolidin-1-yl)methyl]thieno[2,3-d]pyrimidine-2,4(1H,3H)-dione] | 40
COC(=O)N=C1NCCN1Cc1sc2c(c1C)c(=O)n(CC(C)(C)C)c(=O)n2CCC(F)(F)F [Example 461, Methyl [1-{[3-(2,2-dimethylpropyl)-5-methyl-2,4-dioxo-1-(3,3,3-trifluoropropyl)-1,2,3,4-tetrahydrothieno[2,3-d]pyrimidin-6-yl]methyl}imidazolidin-2-ylidene]carbamate] | 9.2
Cc1c(CN2CCN(C(C)C)C(=O)C2=O)sc2c1c(=O)n(CC(C)C)c(=O)n2CCCF [Example 496, 1-(3-Fluoropropyl)-3-isobutyl-6-[(4-isopropyl-2.3-dioxopiperazin-1-yl)methyl]-5-methylthieno[2,3-d]pyrimidine-2,4(1H,3H)-dione] | 120
COCCn1c(=O)c2c(C)c(CN3CCNC3=NC(=O)OC)sc2n(CC2CCO2)c1=O (single isomer, unassigned) [Example 389, Methyl [1-{[3-(2-methoxyethyl)-5-methyl-1-(oxetan-2-ylmethyl)-2,4-dioxo-1,2,3,4-tetrahydrothieno[2,3-d]pyrimidin-6-yl]methyl}imidazolidin-2-ylidene]carbamate] | 87
COCCn1c(=O)c2c(C)c(CN3CCNC(=O)C3=O)sc2n(CCCF)c1=O [Example 277, 6-[(2,3-Dioxopiperazin-1-yl)methyl]-1-(3-fluoropropyl)-3-(2-methoxyethyl)-5-methylthieno[2,3-d]pyrimidine-2,4(1H,3H)-dione] | 68
Cc1c(CN2CCNC2=S)sc2c1c(=O)n(CC(C)(C)C)c(=O)n2CCC(F)(F)F [Example 149, 3-(2,2-Dimethylpropyl)-5-methyl-6-[(2-thioxoimidazolidin-1-yl)methyl]-1-(3,3,3-trifluoropropyl)thieno[2,3-d]pyrimidine-2,4(1H,3H)-dione] | 5.1
Cc1c(CN2CCNC2=S)sc2c1c(=O)n(CC(F)(F)F)c(=O)n2CC1CCCO1 (single isomer, unassigned) [Example 300, 5-Methyl-1-(tetrahydrofuran-2-ylmethyl)-6-[(2-thioxoimidazolidin-1-yl)methyl]-3-(2,2,2-trifluoroethyl)thieno[2,3-d]pyrimidine-2,4(1H,3H)-dione] | 14
COCCn1c(=O)n(CC(C)(C)C)c(=O)c2c(C)c(CN3CCNC3=NC(=O)OC)sc21 [Example 462, Methyl [1-{[3-(2,2-dimethylpropyl)-1-(2-methoxyethyl)-5-methyl-2,4-dioxo-1,2,3,4-tetrahydrothieno[2,3-d]pyrimidin-6-yl]methyl}imidazolidin-2-ylidene]carbamate] | 16
Cc1c(Cn2nc[nH]c2=O)sc2c1c(=O)n(C(C)C)c(=O)n2CC1CCCO1 (single isomer, unassigned) [Example 426, 3-Isopropyl-5-methyl-6-[(5-oxo-4,5-dihydro-1H-1,2,4-triazol-1-yl)methyl]-1-(tetrahydrofuran-2-ylmethyl)thieno[2,3-d]pyrimidine-2,4(1H,3H)-dione] | 270
COCCn1c(=O)c2c(C)c(Cn3cc[nH]c3=O)sc2n(CCC(F)(F)F)c1=O [Example 344, 3-(2-Methoxyethyl)-5-methyl-6-[(2-oxo-2,3-dihydro-1H-imidazol-1-yl)methyl]-1-(3,3,3-trifluoropropyl)thieno[2,3-d]pyrimidine-2,4(1H,3H)-dione] | 8.5
Cc1c(Cn2nc[nH]c2=O)sc2c1c(=O)n(CC(C)(C)C)c(=O)n2CC1CCCO1 (single isomer, unassigned) [Example 430, 3-(2,2-Dimethylpropyl)-5-methyl-6-[(5-oxo-4,5-dihydro-1H-1,2,4-triazol-1-yl)methyl]-1-(tetrahydrofuran-2-ylmethyl)thieno[2,3-d]pyrimidine-2,4(1H,3H)-dione] | 280
CCn1c(=O)c2c(C)c(Cn3[nH]ccc3=O)sc2n(CC2CCCO2)c1=O (single isomer, unassigned) [Example 131, 3-Ethyl-5-methyl-6-[(5-oxo-2,5-dihydro-1H-pyrazol-1-yl)methyl]-1-(tetrahydrofuran-2-ylmethyl)thieno[2,3-d]pyrimidine-2,4(1H,3H)-dione] | 180
